The record followed here is patent publication US20180188195A1, “SYSTEMS AND METHODS FOR MULTIPLEXED HEMOSTASIS TEST PANELS” (T2 Biosystems, Inc., priority 2015, published 2018).

For experiment [1], the system named is citrated whole blood. Briefly: T2Ex T2MR clotting time, extrinsic pathway activator (tissue factor). Format: cell-based, human. The source says: In one embodiment a panel is used with an extrinsic activator such as tissue factor. The clotting time T2MR measurement for normal blood can be 30-40 seconds. It can also be 8-12 seconds, 10-20 seconds, 10-40 seconds, 30-40 seconds, 30-50 seconds, 40-60 seconds, 50-60 seconds or 20-60 seconds. The international normalized ratio for normal blood can then be 0.8-1.2, or 0.87-1.13. The abnormal range of T2MR measurement of clotting time is above or below the normal range. The total range easily measured is 8-300 seconds though a measurement up to or beyond 1000 seconds could be performed with modified acquisition. If aprotinin is added in addition to tissue factor, in normal blood the clotting time is often between 27.9 and 41.6 seconds.
The general extrinsic activator protocol was as follows (T2Ex panel): an extrinsic activator solution was prepared by mixing tissue factor reagent with CaCl2. […]
The T2Ex or the T2In protocols were also used with the addition of aprotinin (T2Ex-A and T2In-A) respectively. […] The sample was mixed and read in the T2reader. […]
Rivaroxaban was spiked into citrated blood from normal donors at increasing levels. Aliquots of spiked blood were activated with tissue factor activator solution and clot times determined by T2MR. […]

Experiment [2] deals with plasma. The experiment can be described thus: STAGO plasma prothrombin time (PT). Format: biochemical, human. The following applies: rivaroxaban spiked samples, three donors. The protocol:
Samples from three donors were provided. Rivaroxaban spiked citrated whole blood samples were used to generate a range of clotting time measurements. An extrinsic pathway activator, such as tissue factor, was added. The T2MR clotting time (CT) range used was 32-259 seconds, and the STAGO plasma prothrombin time (PT) range was 11-47 seconds. Five replicate T2MR measurements were taken for each clotting time.

Experiment [3] has as its system plasma. The experiment can be described thus: STAGO aPTT. Format: biochemical, human. The following applies: rivaroxaban spiked samples, six donors. The protocol: Citrated whole blood samples from six donors were provided and spiked with rivaroxaban to generate a range of clotting times. An activator of the intrinsic coagulation pathway, (e.g. ellagic acid), was added. T2MR clotting time range was between 73-202 seconds, and the STAGO aPTT range was between 29-86 seconds. Five replicate T2MR measurements were taken for each clotting time. The specification desired was between 0.7-5% CV with 100-200 seconds of clotting time and a detection range of 60-450 seconds.

In experiment [4] the test system is citrated whole blood. Briefly: T2In T2MR clotting time, intrinsic pathway activator (ellagic acid). Format: cell-based, human. The text has this: In another embodiment a coagulopathy panel is used with an intrinsic activator such as ellagic acid. The common range of clotting time is often between 100 and 120 seconds for normal blood. However, it can be 22-30 seconds, 30-44 seconds, 44-60 seconds, 60-80 seconds, 80-100 seconds, up to 2 times to 4 times the range of normal T2MR clotting times for the extrinsic activator. The abnormal clotting time ranges are above or below the normal range. The total range easily measured is 8-300 seconds though a measurement up to or beyond 1000 seconds could be performed with modified acquisition. If aprotinin is added in addition to intrinsic activator, clotting times can often be from 110.9-151.0 seconds in normal blood.
The general intrinsic activator protocol is as follows (T2In panel): an intrinsic activator solution was prepared by mixing tissue factor reagent with CaCl2. To 36.7 μL of citrated whole blood (warmed to approximately 37° C. for 3 minutes and mixed) was added 5 μL of the intrinsic activator solution (also been warmed to approximately 37° C. for one minute). The resulting solution was mixed and subjected to T2 measurements for 50 minutes. For a given sample, a clotting time measurement was typically obtained within 5 minutes. Some examples of activators are tissue factor with phospholipids and ellagic acid with phospholipid. The reagents were placed in a tube that was subsequently placed in the magnetic field. Citrated whole blood was added and mixed. The blood was diluted 50%. The T2MR of the sample was measured for 30 minutes.
The T2Ex or the T2In protocols were also used with the addition of aprotinin (T2Ex-A and T2In-A) respectively. For the intrinsic pathway measurement (T2In), intrinsic activator solution was prepared by mixing ellagic acid stock and CaCl2. For the intrinsic pathway measurement that includes aprotinin (T2In-A), add 41.7 μL of a 1 mg/mL stock of aprotinin to 1 mL intrinsic activator solution. 36.7 μL citrated whole blood that had been warmed to approximately 37° C. for three minutes was added and mixed. […] The sample was mixed and read in the T2reader. […]

The test system of experiment [5] is citrated whole blood. Briefly: T2In platelet activity and fibrinolysis measurement with tPA or aprotinin. The conditions noted are these: ellagic acid with CaCl2; tPA 0, 2 or 4 nM or aprotinin control; 65 min. Format: cell-based, human. The procedure:
The T2Ex or the T2In protocols were also used with the addition of aprotinin (T2Ex-A and T2In-A) respectively. For the intrinsic pathway measurement (T2In), intrinsic activator solution was prepared by mixing ellagic acid stock and CaCl2. For the intrinsic pathway measurement that includes aprotinin (T2In-A), add 41.7 μL of a 1 mg/mL stock of aprotinin to 1 mL intrinsic activator solution. 36.7 μL citrated whole blood that had been warmed to approximately 37° C. for three minutes was added and mixed. 5 μL of intrinsic activator solution with aprotinin that had been warmed to approximately 37° C. for one minute was added. The sample was mixed and read in the T2reader. The clotting time measurement was obtained after 5 minutes and then the platelet activity and fibrinolysis measurements were obtained over the following 60 minutes. In a separate assay the effects of the amounts of activator were tested.
Platelet activity and fibrinolysis measurements for the 3 donor samples in the T2In assay are shown in FIG. 15a-15b. tPA levels of 0 nM, 2 nM or 4 nM were added to citrated whole blood. Blood samples (36.7 μL) were activated by addition of 5 μL ellagic acid solution with CaCl2. T2MR data was collected for 65 min. The addition of tPA cleaves the fibrin mesh of the clot and results in clot dissolution over time. This is detected by T2MR by the change in T2 value of the serum peak (third phase). […]

A further experiment relates to platelet aggregation. Briefly: Platelet aggregation by whole blood aggregometry (WBA) or light transmission aggregometry (LTA). Format: cell-based, human. The following applies: titration of CCD.
In experiment [6] the test system is reconstituted blood samples. The experiment can be described thus: T2MR % deltaT2 fibrinogen measurement, reconstituted blood activated with ellagic acid. Format: cell-based, human. The text has this:
The T2MR based hemostasis assays described herein can be used to discriminate normal from abnormal patient samples for fibrinogen measurements using either an extrinsic or intrinsic pathway activation. […] Citrated whole blood from normal donors was centrifuged and […] removed. Packed red blood cells were washed with fibrinogen depleted plasma. Fibrinogen depleted plasma was spiked with known amounts of fibrinogen; these spiked plasmas were used to reconstitute washed red blood cells to produce blood samples with varying fibrinogen levels. Blood samples were activated with ellagic acid activator solution and clot time and % deltaT2 were measured. Fibrinogen levels in each sample were determined by the Clauss method. […] Low fibrinogen (120 mg/dL) gave an average % deltaT2 of 4, normal level fibrinogen (343 mg/dL) gave an average % deltaT2 of 8.3 and high fibrinogen (583 mg/dL) gave an average % deltaT2 of 10.7.

The subject of the next experiment is citrated plasma. Briefly: T2MR PT clotting time in samples from donors on Coumadin therapy. Format: in vivo, human. The protocol:
All samples were sourced from the coagulation laboratory at a local hospital. Lab protocol was to collect discarded citrated blood samples (venous draw, 1 mL minimum) from patients on Coumadin therapy with both normal and abnormal PT values. Citrated blood samples were stored at RT and within 4-5 hours of the draw time samples were spun down at 1500×g for 15 min to prepare plasma. Plasma samples were stored frozen at −70° C.
For citrated plasma, a tissue factor reagent was prepared by reconstituting the lyophilized Dade® Innovin® (tissue factor) reagent. Citrated plasma (13 μL) was mixed with 27 μL of tissue factor reagent. All reagents and disposables were adequately pre-heated. T2 values were collected with a 1 second dwell time and used to collect the T2 values as a function of time. The T2 vs. time data were collected for 120 successive measurements and fit with a five-parameter logistic fit to calculate the EC50, from which the clotting time was derived. A method comparison against the Stago ST4 system and a precision study was completed with 22 samples from normal donors not on anti-coagulant medications and 50 samples from donors on Coumadin. […] INR (international normalized ratio, a normalized PT value) values were calculated from a pool of normal healthy donors. […] This corresponds to a clotting time value that is prolonged compared to standard therapeutic ranges.

On to `O=C(NC[C@H]1CN(c2ccc(N3CCOCC3=O)cc2)C(=O)O1)c1ccc(Cl)s1` [rivaroxaban], for which the “extension of clot times” value in the experiment on citrated whole blood [1] (800 ng/mL spiked into citrated blood from normal donors, tissue factor activator solution) was “approximately 80%”. In addition, the “T2MR clotting time (CT) range” value in the experiment on citrated whole blood [1] (rivaroxaban spiked citrated whole blood, three donors, range over spiked samples (Example 12)) fell in the range of 32 to 259 s. In addition, the “STAGO plasma prothrombin time (PT) range” value in the experiment with plasma [2] lay in the range of 11 to 47 s. In the experiment on plasma [3], the “STAGO aPTT range” value lay within 29 to 86 s. Also, the “T2MR clotting time range” value in the experiment on citrated whole blood [4] (rivaroxaban spiked citrated whole blood, six donors) was in the range of 73 to 202 s.
Regarding aprotinin, the “change in T2 value of the serum peak (third phase)” value in the experiment on citrated whole blood [5] is listed as “no detected change”. For the same compound, the “clotting time curves (% deltaT2)” value in the experiment on citrated whole blood [4] (T2In, 3 donors, different tPA concentrations, with or without aprotinin) is “appear to overlay”. Besides, in the experiment on citrated whole blood [4] (aprotinin added in addition to intrinsic activator, normal blood), the clotting times was 110.9 to 151.0 s.
With `C=C1[C@@H](C)[C@H]2[C@H](Cc3ccccc3)NC(=O)[C@]23[C@H](OC(C)=O)/C=C/[C@@](C)(O)C(=O)[C@@H](C)C/C=C/[C@H]3[C@@H]1O` [CCD, cytochalasin D], the “effect on platelet aggregation” value in the experiment on platelet aggregation was “no reproducible effect”.
As to fibrinogen, the “average % deltaT2” value in experiment [6] (high fibrinogen 583 mg/dL) came to 10.7; in experiment [6] (low fibrinogen 120 mg/dL), 4; in experiment [6] (normal level fibrinogen 343 mg/dL), 8.3.
Take `CC(=O)CC(c1ccccc1)c1c(O)c2ccccc2oc1=O` (centres unmarked) [Coumadin, warfarin]: the “clotting times versus normal donors not on therapy” value in the experiment with citrated plasma (citrated plasma, citrated blood and fresh whole blood) is “prolonged clotting times”. Moreover, the INR in the experiment with citrated plasma (patient on Coumadin, hypocoagulable state) turned out to be 5.3; with citrated plasma (patient undergoing Coumadin therapy but hypercoagulable), 0.8. In addition, the T2MR clotting time was 51.3 s with citrated plasma (patient on Coumadin, hypocoagulable state, citrated plasma, tissue factor reagent) and 8.4 s in the experiment on citrated plasma (patient undergoing Coumadin therapy but hypercoagulable, citrated plasma).
